The results in this text go back to patent US5108916A, “Process for stereoselectively hydrolyzing, transesterifying or esterifying with immobilized isozyme of lipase from Candida rugosa” (priority 1989, dated 1992).

Values joined by “and” are separate entries in the source; they are usually repeats but may differ in a detail not shown here. Equal values may be shown once. Some results are limits rather than exact numbers.

Test system in one assay: not listed separately
Briefly: Conversion of ketoprofen esters in organic solvent/oleic acid media. The class given is biochemical.
Details: not given
On the procedure:
To optimize the organic solvent used in the presence of oleic acid a variety of organic solvents were used, along with a variety of ketoprofen esters. In this experiment, 50 mg of ketoprofen esters were weighed into flasks, along with 1 ml of oleic acid and 9 ml of an organic solvent. The flasks were capped and incubated at 35° C., 250 rpm, for 10-26 hours before stopping the reaction by first adding 4 ml CHCl3 to solubilize the substrates and products, then filtering through a 0.2 um Gelman Nylaflo filter. Samples were then diluted in methanol and analyzed by HPLC as in Example 18. The experiment was also performed using 200 ul of oleic acid and 10ml buffer, which was acidified, extracted with CHCl3 and analyzed by HPLC as above.
One ml of oleic acid was added, as was 9 ml of buffer (100 mM (NH4)H2 PO4, pH 5.5) or organic solvent. Flasks were placed into a 35° C. incubator and shaken at 250 rpm for 13 hours. Reaction was stopped by adding 5 ml CHCl3 to solubilize the organic material and filtering the solutions using 0.2 um Gelman Nylaflo membranes to remove the enzyme. Samples were analyzed on an ODS-3 RAC column using CH3 OH:10 mM (NH4)H2PO4 (60:40) as eluant, flow rate 4 ml/min, and detection at 254 nm. %ee was determined by the resolution of diastereomeric amides on the above HPLC system, as per Example 18.
Take `CCCCCC` [Hexane]: the “% Acid” value was 12% and 16%; the “% ee S-acid” value is 94% and 87%.

The assay is the same for the next values; noted with them: Buffer 10 ml, OA 200 ul.
As for `CC(C(=O)OCCCl)c1cccc(C(=O)c2ccccc2)c1` (stereo not shown) [2-Chloroethyl Ester, 2-chloroethyl ester of ketoprofen], the “% ee” value worked out at 96%.

For `CC(C(=O)OCCOCCO)c1cccc(C(=O)c2ccccc2)c1` (stereo not shown) [Diethylene glycol ester, Diethylene Glycol Ester of Ketoprofen], the “% ee” value is 30%.

As to `CC(C(=O)OCCO)c1cccc(C(=O)c2ccccc2)c1` (stereo not shown) [Ethylene Glycol Ester, ketoprofen ethylene glycol], the “% ee” value is 98%.

`COC(=O)C(C)c1cccc(C(=O)c2ccccc2)c1` (stereo not shown) [Methyl ester]: the “% ee” value stood at 96%.

As to `CC(C(=O)OCC(O)CO)c1cccc(C(=O)c2ccccc2)c1` (stereo not shown) [Monoglyceride Ester, ketoprofen monoglyceride], the “% ee” value stood at 96%.

The same assay, now with this note: Buffer 10 ml, OA 200 ul; enzyme not named in Example 55.
On to `CC(C(=O)OCCCl)c1cccc(C(=O)c2ccccc2)c1` (stereo not shown) [2-Chloroethyl Ester, 2-chloroethyl ester of ketoprofen], for which the “% Acid” value is reported as 18%.

`CC(C(=O)OCCOCCO)c1cccc(C(=O)c2ccccc2)c1` (stereo not shown) [Diethylene glycol ester, Diethylene Glycol Ester of Ketoprofen]: the “% Acid” value was 32%.

As for `CC(C(=O)OCCO)c1cccc(C(=O)c2ccccc2)c1` (stereo not shown) [Ethylene Glycol Ester, ketoprofen ethylene glycol], the “% Acid” value was 21%.

As for `COC(=O)C(C)c1cccc(C(=O)c2ccccc2)c1` (stereo not shown) [Methyl ester], the “% Acid” value is on record as 2%.

Turning to `CC(C(=O)OCC(O)CO)c1cccc(C(=O)c2ccccc2)c1` (stereo not shown) [Monoglyceride Ester, ketoprofen monoglyceride], the “% Acid” value is recorded as 26%.

Staying with this assay, now noted: CHCl3 9 ml, OA 1 ml.
As to `CC(C(=O)OCCCl)c1cccc(C(=O)c2ccccc2)c1` (stereo not shown) [2-Chloroethyl Ester, 2-chloroethyl ester of ketoprofen], the “% Acid” value came to 2% and the “% ee” value was determined as 3%.

Take `CC(C(=O)OCCO)c1cccc(C(=O)c2ccccc2)c1` (stereo not shown) [Ethylene Glycol Ester, ketoprofen ethylene glycol]: the “% Acid” value stood at 0%.

Consider `COC(=O)C(C)c1cccc(C(=O)c2ccccc2)c1` (stereo not shown) [Methyl ester], for which the “% Acid” value is 0%.

On to `CC(C(=O)OCC(O)CO)c1cccc(C(=O)c2ccccc2)c1` (stereo not shown) [Monoglyceride Ester, ketoprofen monoglyceride], for which the “% Acid” value turned out to be 0%.

Staying with this assay, now noted: Hexane 9 ml, OA 1 ml; 10-26 hours.
Consider `CC(C(=O)OCCCl)c1cccc(C(=O)c2ccccc2)c1` (stereo not shown) [2-Chloroethyl Ester, 2-chloroethyl ester of ketoprofen], for which the “% Acid” value was determined as 7%.

As for `CC(C(=O)OCCOCCO)c1cccc(C(=O)c2ccccc2)c1` (stereo not shown) [Diethylene glycol ester, Diethylene Glycol Ester of Ketoprofen], the “% Acid” value stood at 56%.

Consider `CC(C(=O)OCCO)c1cccc(C(=O)c2ccccc2)c1` (stereo not shown) [Ethylene Glycol Ester, ketoprofen ethylene glycol], for which the “% Acid” value worked out at 29%.

Regarding `COC(=O)C(C)c1cccc(C(=O)c2ccccc2)c1` (stereo not shown) [Methyl ester], the “% Acid” value is given as 0.8%.

Regarding `CC(C(=O)OCC(O)CO)c1cccc(C(=O)c2ccccc2)c1` (stereo not shown) [Monoglyceride Ester, ketoprofen monoglyceride], the “% Acid” value is 47%.

The same assay, now with this note: Hexane 9 ml, OA 1 ml; * stopped at 10 Hr.
On to `CC(C(=O)OCCCl)c1cccc(C(=O)c2ccccc2)c1` (stereo not shown) [2-Chloroethyl Ester, 2-chloroethyl ester of ketoprofen], for which the “% ee” value was determined as 92%.

As to `CC(C(=O)OCCOCCO)c1cccc(C(=O)c2ccccc2)c1` (stereo not shown) [Diethylene glycol ester, Diethylene Glycol Ester of Ketoprofen], the “% ee” value came out at 13%.

For the molecule `CC(C(=O)OCCO)c1cccc(C(=O)c2ccccc2)c1` (stereo not shown) [Ethylene Glycol Ester, ketoprofen ethylene glycol], the “% ee” value is listed as 95%.

Take `CC(C(=O)OCC(O)CO)c1cccc(C(=O)c2ccccc2)c1` (stereo not shown) [Monoglyceride Ester, ketoprofen monoglyceride]: the “% ee” value is 97%.

The same assay, now with this note: Isooctane 9 ml, OA 1 ml.
For the molecule `CC(C(=O)OCCCl)c1cccc(C(=O)c2ccccc2)c1` (stereo not shown) [2-Chloroethyl Ester, 2-chloroethyl ester of ketoprofen], the “% Acid” value is 18%.

For `CC(C(=O)OCCOCCO)c1cccc(C(=O)c2ccccc2)c1` (stereo not shown) [Diethylene glycol ester, Diethylene Glycol Ester of Ketoprofen], the “% Acid” value was 60%.

Regarding `CC(C(=O)OCCO)c1cccc(C(=O)c2ccccc2)c1` (stereo not shown) [Ethylene Glycol Ester, ketoprofen ethylene glycol], the “% Acid” value was determined as 47%.

For `COC(=O)C(C)c1cccc(C(=O)c2ccccc2)c1` (stereo not shown) [Methyl ester], the “% Acid” value worked out at 2%.

Consider `CC(C(=O)OCC(O)CO)c1cccc(C(=O)c2ccccc2)c1` (stereo not shown) [Monoglyceride Ester, ketoprofen monoglyceride], for which the “% Acid” value is on record as 31%.

Staying with this assay, now noted: Isooctane 9 ml, OA 1 ml; * stopped at 10 Hr.
For `CC(C(=O)OCCCl)c1cccc(C(=O)c2ccccc2)c1` (stereo not shown) [2-Chloroethyl Ester, 2-chloroethyl ester of ketoprofen], the “% ee” value is recorded as 97%.

For `CC(C(=O)OCCOCCO)c1cccc(C(=O)c2ccccc2)c1` (stereo not shown) [Diethylene glycol ester, Diethylene Glycol Ester of Ketoprofen], the “% ee” value was 17%.

Turning to `CC(C(=O)OCCO)c1cccc(C(=O)c2ccccc2)c1` (stereo not shown) [Ethylene Glycol Ester, ketoprofen ethylene glycol], the “% ee” value stood at 98%.

With `COC(=O)C(C)c1cccc(C(=O)c2ccccc2)c1` (stereo not shown) [Methyl ester], the “% ee” value is given as 93%.

For the molecule `CC(C(=O)OCC(O)CO)c1cccc(C(=O)c2ccccc2)c1` (stereo not shown) [Monoglyceride Ester, ketoprofen monoglyceride], the “% ee” value amounted to 96%.

The assay is the same for the next values; noted with them: KPEG 50 mg; as E212.
With `CC(Cl)(Cl)Cl` [1,1,1-Trichloroethane], the “% Acid” value was 0%.

Consider `c1ccc2c(c1)CCCC2` [1,2,3,4-Tetrahydronapthalene], for which the “% Acid” value turned out to be 1%.

Still in this assay, the particulars now being: KPEG; as E212.
For `CC(Cl)(Cl)Cl` [1,1,1-Trichloroethane], the “% ee S-acid” value was determined as 0%.

For `c1ccc2c(c1)CCCC2` [1,2,3,4-Tetrahydronapthalene], the “% ee S-acid” value came out at 1%.

Still in this assay, the particulars now being: KPG 50 mg, 100 mg CSC-2 on silica (279-SD-1), 9 ml solvent (or buffer)/1 ml oleic acid, 13 hours.
For the molecule `CC(Cl)(Cl)Cl` [1,1,1-Trichloroethane], the “% Acid” value was found to be 1%.

With `c1ccc2c(c1)CCCC2` [1,2,3,4-Tetrahydronapthalene], the “% Acid” value stood at 2%.

The same assay, now with this note: KPG; as E212.
For `CC(Cl)(Cl)Cl` [1,1,1-Trichloroethane], the “% ee S-acid” value was found to be 0%.

Consider `c1ccc2c(c1)CCCC2` [1,2,3,4-Tetrahydronapthalene], for which the “% ee S-acid” value is on record as 68%.

The same assay, now with this note: Toluene 9 ml, OA 1 ml.
For the molecule `CC(C(=O)OCCCl)c1cccc(C(=O)c2ccccc2)c1` (stereo not shown) [2-Chloroethyl Ester, 2-chloroethyl ester of ketoprofen], the “% Acid” value is reported as 1% and the “% ee” value is on record as less than 1%.

With `CC(C(=O)OCCO)c1cccc(C(=O)c2ccccc2)c1` (stereo not shown) [Ethylene Glycol Ester, ketoprofen ethylene glycol], the “% Acid” value was 0%.

In the case of `COC(=O)C(C)c1cccc(C(=O)c2ccccc2)c1` (stereo not shown) [Methyl ester], the “% Acid” value is reported as 0%.

On to `CC(C(=O)OCC(O)CO)c1cccc(C(=O)c2ccccc2)c1` (stereo not shown) [Monoglyceride Ester, ketoprofen monoglyceride], for which the “% Acid” value came out at 0%.

In the next assay the test system is CSC-2. Briefly: Effect of additives and solvents on hydrolysis of ketoprofen monoglyceride by CSC-2. It counts as biochemical, Candida rugosa.
Details: not given
On the procedure: Hydrolysis of ketoprofen-monoglyceride (50mg) was carried out in various DMF-100mM (NH4)H2 PO4 buffer (pH 5.5) mixtures. In each flask a solution of ketoprofen monoglyceride (50mg) in DMF (200ul) was added. DMF was added followed by 100mM (NH4)H2 PO4 buffer. […] After 22 hours, 2%, 5%, and 10% DMF samples were acidified, extracted with CHCl3 (2×10ml) and analyzed. The other samples were analyzed directly as in Example 18. The acid produced decreases with increasing amount of DMF.
Small amounts of DMF were added to the reaction mixture to increase the solubility of KPG. In all cases 100mM ammonium phosphate buffer (pH 5.5) was used and 2% (v/v) detergents were added and the total volume was 10ml.
The buffer reaction (entry #2 in the table) contained enzyme in buffer (2 ml) and the buffer only (entry #1 in the table) reaction contained no enzyme.
The presence of a surfactant like Tween increases the solubility o lipophilic compounds in water. […] Tween 80 was added to make 1% and 2% solution (v/v). Bovine serum albumin (BSA) (10mg) was added to each of two flasks. A solution of 50mg of ketoprofen monoglyceride in 200ul DMF was added to each. After 20 hours at 250 rpm and 35° C. the reaction mixtures were acidified, extracted and analyzed by the usual HPLC procedure as in Example 18.
Various surfactants were used at 2% of the reaction volume to determine their effect on the enzymatic reaction involving the conversion of ketoprofen monoglyceride (KPG) to ketoprofen (KP). […] Flasks were covered with parafilm and incubated in a 35° C. water bath at 250 rpm, typically overnight. Reactions were stopped by acidification, extracted with CHCl3 (2×10 ml). The %acid and %ee were determined by the method of Example 18. It is to be noted that Hydrophile-Lipophile Balance (HLB) values have no apparent bearing on the ability of the surfactant to enhance the conversion of KPG to KP.
75 mg of KPG (in the absence of DMF) was individually weighed into 50 ml Erlenmeyer flasks. […] 9 ml of 100 mM (NH4)H2 PO4, pH 5.5 buffer was added, and the flasks were placed into a 35° C., 250 rpm water bath incubator for 20 hours. The reactions were acidified, extracted with CHCl3 and examined by HPLC as in Example 18. The %ee was determined as per Example 18.
Various amounts of oleic acid or its esters were added, and the reactions stopped at the times indicated, acidified, extracted with CHCl3 and analyzed as in Example 18.
An experiment was performed as in Example 41, but using 100, 200 and 500 ul of olive oil to determine if it would enhance the rate of conversion of KPG to KP. […] After 20 hours, all reactions were acidified, extracted with CHCl3 and analyzed by HPLC as in Example 18. The results are given below:
50 mg of KPG was weighed into Erlenmeyer flasks. […] Flasks were incubated at 35° C., 250 rpm for 23 hours. The reactions were stopped by acidification, extracted with CHCl3, and analyzed by HPLC as in Example 18. The additive is listed along with its percentage composition of glycerides of oleic acid.
To determine the problems associated with having oleic acid or oleate. esters in the reaction media, the following experiment was performed. […] Flasks were placed in a 35° C. incubator at 250 rpm, and the reactions were sampled by taking 200 ul aliquots at various time points. These aliquots were analyzed by HPLC (ODS-3 RAC column, CH3 OH: 10 mM (NH4)H2 PO4 (60:40) eluant, 4 ml/min, 254 nm detection) to determine the course of reaction. When approximately 40% acid was produced, the reactions were stopped by placing the flasks in the -70° C. freezer. Two extraction procedures were utilized to determine the best method of isolating S-Ketoprofen free of oleic acid. The first (listed as Extraction Procedure I in the following table) involved first making the solution basic (pH 10) with NaOH, then extracting with hexane, then CHCl3.
`CCCCCC` [Hexane]: the “EE of S-acid” value turned out to be 93%.

The same assay, now with this note: pH 5.5, 1560 min.
With `CCCCCC` [Hexane], the “Relative Rate” value is reported as 80.

Still in this assay, the particulars now being: solvent/buffer 1:1 two phase, 26 hours.
Regarding `CC(Cl)(Cl)Cl` [1,1,1-Trichloroethane], the “EE of S-acid” value stood at 75%.

As to `c1ccc2c(c1)CCCC2` [1,2,3,4-Tetrahydronapthalene], the “EE of S-acid” value is given as 85%.

The same assay, now with this note: solvent/buffer 1:1 two phase, 26 hours; buffer = 100.
Turning to `CC(Cl)(Cl)Cl` [1,1,1-Trichloroethane], the “Relative Rate” value came to 25.

In the case of `c1ccc2c(c1)CCCC2` [1,2,3,4-Tetrahydronapthalene], the “Relative Rate” value came to 136.
